Results: patent publication US12723063B2, “GIPR-agonist compounds” (Eli Lilly and Company, priority 2019, dated 2026)
*1 amine or outer side, *2 acyl side, *3 side chain or, on linkers, in order; H or OH if unused. Where a SMILES comes first, the peptide text is derived from it. Side-chain parts run from the residue outwards. [ ]: non-standard residue; d: D form. The star is where a group is joined. C20 diacid = O=C(O)CCCCCCCCCCCCCCCCCCC(=O)*; C18 diacid = O=C(O)CCCCCCCCCCCCCCCCC(=O)*; γGlu = O=C(O)[C@H](CCC(=O)[*:2])N[*:1]; αMeY = C[C@](N)(Cc1ccc(O)cc1)C(=O)O; 4Pal = N[C@@H](Cc1ccncc1)C(=O)O; αMeL = CC(C)C[C@](C)(N)C(=O)O; Iva = CC[C@](C)(N)C(=O)O; Orn = NCCC[C@H](N)C(=O)O; AEEA = NCCOCCOCC(=O)O; Aib = CC(C)(N)C(=O)O

How the values were obtained:
[1] = target: T1, human glucose-dependent insulinotropic peptide receptor (GIPR) (Homo sapiens, UniProt P48546); test: cAMP functional assay (HTRF) in HEK293 cells in presence of 0.1% casein; format: cell-based; settings: HEK293 cells expressing human GIPR, geometric mean, read-out: hGIPR cAMP Rel EC50 nM (SEM, n)
T1 construct: expressed in transfected cells; host or cells: HEK293
T1 sequence (P48546 22-466): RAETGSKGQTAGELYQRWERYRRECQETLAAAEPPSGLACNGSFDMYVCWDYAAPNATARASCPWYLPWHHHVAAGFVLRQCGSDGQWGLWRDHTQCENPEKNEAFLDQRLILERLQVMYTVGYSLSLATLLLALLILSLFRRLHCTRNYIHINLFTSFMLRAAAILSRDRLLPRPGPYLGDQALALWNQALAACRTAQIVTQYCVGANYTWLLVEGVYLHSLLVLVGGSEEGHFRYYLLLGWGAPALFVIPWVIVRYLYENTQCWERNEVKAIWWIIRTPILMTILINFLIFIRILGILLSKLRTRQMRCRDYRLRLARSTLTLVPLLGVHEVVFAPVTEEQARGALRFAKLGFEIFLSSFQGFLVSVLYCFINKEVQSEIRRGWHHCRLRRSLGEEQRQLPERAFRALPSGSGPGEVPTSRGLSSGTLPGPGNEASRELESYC

[2] = target: T2, human glucagon receptor (GcgR) (Homo sapiens, UniProt P47871); test: as above; format: cell-based; settings: HEK293 cells expressing human GcgR, geometric mean, read-out: hGcgR cAMP Rel EC50 nM (SEM, n)
T2 construct: expressed in transfected cells; host or cells: HEK293
T2 sequence (P47871 26-477): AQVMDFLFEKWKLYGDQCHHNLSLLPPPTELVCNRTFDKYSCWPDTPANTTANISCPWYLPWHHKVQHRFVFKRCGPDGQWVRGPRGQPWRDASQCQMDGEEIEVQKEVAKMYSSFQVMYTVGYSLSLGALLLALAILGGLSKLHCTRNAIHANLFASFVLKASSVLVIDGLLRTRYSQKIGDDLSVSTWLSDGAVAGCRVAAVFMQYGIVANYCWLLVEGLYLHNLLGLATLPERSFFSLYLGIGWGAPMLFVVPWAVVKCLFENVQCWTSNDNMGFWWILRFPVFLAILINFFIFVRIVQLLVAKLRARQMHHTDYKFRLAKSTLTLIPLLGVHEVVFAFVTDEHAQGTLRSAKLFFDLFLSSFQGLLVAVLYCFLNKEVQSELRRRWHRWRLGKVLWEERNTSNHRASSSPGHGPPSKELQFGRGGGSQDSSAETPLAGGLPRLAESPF

Q: Which EC50 [1] does the source give for `CC[C@H](C)[C@H](NC(=O)[C@H](Cc1ccccc1)NC(=O)[C@@H](NC(=O)CNC(=O)[C@H](CCC(=O)O)NC(=O)C(C)(C)NC(=O)[C@@H](N)Cc1ccc(O)cc1)[C@@H](C)O)C(=O)N[C@@H](CO)C(=O)N[C@@H](CC(=O)O)C(=O)N[C@@H](Cc1ccc(O)cc1)C(=O)N[C@@H](CO)C(=O)N[C@H](C(=O)N[C@@](C)(CC(C)C)C(=O)N[C@@H](CC(C)C)C(=O)N[C@@H](CC(=O)O)C(=O)N[C@@H](CCC(=O)O)C(=O)N[C@@H](CCCCNC(=O)COCCOCCNC(=O)COCCOCCNC(=O)CC[C@H](NC(=O)CCCCCCCCCCCCCCCCCCC(=O)O)C(=O)O)C(=O)N[C@@H](Cc1c[nH]cn1)C(=O)N[C@@H](CCC(N)=O)C(=O)NC(C)(C)C(=O)N[C@@H](CC(=O)O)C(=O)N[C@@H](Cc1ccccc1)C(=O)N[C@H](C(=O)N[C@@H](CCC(=O)O)C(=O)N[C@@H](Cc1ccncc1)C(=O)N[C@@H](CC(C)C)C(=O)N[C@@H](CC(C)C)C(=O)N[C@@H](C)C(=O)NCC(=O)NCC(=O)N1CCC[C@H]1C(=O)N[C@@H](CO)C(=O)N[C@@H](CO)C(=O)NCC(=O)N[C@@H](C)C(=O)N1CCC[C@H]1C(=O)N1CCC[C@H]1C(=O)N1CCC[C@H]1C(=O)N[C@@H](CO)C(N)=O)C(C)C)[C@@H](C)CC` [Example 86] here?
A: Its EC50 is 0.03 nM.

Q: And the EC50 [2]?
A: Its EC50 is > 5000 nM.

Q: Which results are given for `CC[C@H](C)[C@H](NC(=O)[C@H](Cc1ccccc1)NC(=O)[C@@H](NC(=O)CNC(=O)[C@H](CCC(=O)O)NC(=O)C(C)(C)NC(=O)[C@@H](N)Cc1ccc(O)cc1)[C@@H](C)O)C(=O)N[C@@H](CO)C(=O)N[C@@H](CC(=O)O)C(=O)N[C@@H](Cc1ccc(O)cc1)C(=O)N[C@@H](CO)C(=O)N[C@H](C(=O)N[C@@](C)(CC(C)C)C(=O)N[C@@H](CC(C)C)C(=O)N[C@@H](CC(=O)O)C(=O)N[C@@H](CCCN)C(=O)N[C@@H](CCCCNC(=O)COCCOCCNC(=O)COCCOCCNC(=O)CC[C@H](NC(=O)CCCCCCCCCCCCCCCCC(=O)O)C(=O)O)C(=O)N[C@@H](Cc1c[nH]cn1)C(=O)N[C@@H](CCC(N)=O)C(=O)NC(C)(C)C(=O)N[C@@H](CC(=O)O)C(=O)N[C@@H](Cc1ccccc1)C(=O)N[C@H](C(=O)N[C@@H](CCC(=O)O)C(=O)N[C@@H](Cc1ccncc1)C(=O)N[C@@H](CC(C)C)C(=O)N[C@@H](CC(C)C)C(=O)N[C@@H](CCC(=O)O)C(=O)N[C@@H](C)C(=O)NCC(=O)N1CCC[C@H]1C(=O)N[C@@H](CO)C(=O)N[C@@H](CO)C(=O)NCC(=O)N[C@@H](C)C(=O)N1CCC[C@H]1C(=O)N1CCC[C@H]1C(=O)N1CCC[C@H]1C(=O)N[C@@H](CO)C(N)=O)C(C)C)[C@@H](C)CC` [Example 87] (H-Y[Aib]EGTFISDYSI[αMeL]LD[Orn]K([AEEA-AEEA-γGlu-C18 diacid])HQ[Aib]DFVE[4Pal]LLEAGPSSGAPPPS-NH2)?
A: EC50 [1]: 0.0107 nM; EC50 [2]: > 5000 nM

Q: How did the EC50 [1] turn out when `CC[C@H](C)[C@H](NC(=O)[C@H](CO)NC(=O)[C@H](Cc1ccc(O)cc1)NC(=O)[C@H](CC(=O)O)NC(=O)[C@H](CO)NC(=O)[C@@H](NC(=O)[C@](C)(CC)NC(=O)[C@@H](NC(=O)CNC(=O)[C@H](CCC(=O)O)NC(=O)C(C)(C)NC(=O)[C@@H](N)Cc1ccc(O)cc1)[C@@H](C)O)[C@@H](C)CC)C(=O)N[C@@](C)(CC(C)C)C(=O)N[C@@H](CC(C)C)C(=O)N[C@@H](CC(=O)O)C(=O)N[C@@H](CCCCN)C(=O)N[C@@H](CCCCNC(=O)COCCOCCNC(=O)COCCOCCNC(=O)CC[C@H](NC(=O)CCCCCCCCCCCCCCCCCCC(=O)O)C(=O)O)C(=O)N[C@@H](Cc1c[nH]cn1)C(=O)N[C@@H](CCC(N)=O)C(=O)NC(C)(C)C(=O)N[C@@H](CC(=O)O)C(=O)N[C@@H](Cc1ccccc1)C(=O)N[C@H](C(=O)N[C@@H](CCC(=O)O)C(=O)N[C@@H](Cc1ccncc1)C(=O)N[C@@H](CC(C)C)C(=O)N[C@@H](CC(C)C)C(=O)N[C@@H](CCC(=O)O)C(=O)N[C@@H](C)C(=O)NCC(=O)N1CCC[C@H]1C(=O)N[C@@H](CO)C(=O)N[C@@H](CO)C(=O)NCC(=O)N[C@@H](C)C(=O)N1CCC[C@H]1C(=O)N1CCC[C@H]1C(=O)N1CCC[C@H]1C(=O)N[C@@H](CO)C(N)=O)C(C)C` [Example 88] (H-Y[Aib]EGT[Iva]ISDYSI[αMeL]LDKK([AEEA-AEEA-γGlu-C20 diacid])HQ[Aib]DFVE[4Pal]LLEAGPSSGAPPPS-NH2) was run?
A: Its EC50 is 0.0031 nM.

Q: And the EC50 [2]?
A: The EC50 was 1670 nM.

Q: How did the EC50 [1] turn out when `CC[C@H](C)[C@H](NC(=O)[C@H](CC(C)C)NC(=O)[C@@H](NC(=O)CNC(=O)[C@H](CCC(=O)O)NC(=O)C(C)(C)NC(=O)[C@@H](N)Cc1ccc(O)cc1)[C@@H](C)O)C(=O)N[C@@H](CO)C(=O)N[C@@H](CC(=O)O)C(=O)N[C@@H](Cc1ccc(O)cc1)C(=O)N[C@@H](CO)C(=O)N[C@H](C(=O)N[C@@](C)(CC(C)C)C(=O)N[C@@H](CC(C)C)C(=O)N[C@@H](CC(=O)O)C(=O)N[C@@H](CCCCN)C(=O)N[C@@H](CCCCNC(=O)COCCOCCNC(=O)COCCOCCNC(=O)CC[C@H](NC(=O)CCCCCCCCCCCCCCCCCCC(=O)O)C(=O)O)C(=O)N[C@@H](Cc1c[nH]cn1)C(=O)N[C@@H](CCC(N)=O)C(=O)NC(C)(C)C(=O)N[C@@H](CC(=O)O)C(=O)N[C@@H](Cc1ccccc1)C(=O)N[C@H](C(=O)N[C@@H](CCC(=O)O)C(=O)N[C@@H](Cc1ccncc1)C(=O)N[C@@H](CC(C)C)C(=O)N[C@@H](CC(C)C)C(=O)N[C@@H](CCC(=O)O)C(=O)N[C@@H](C)C(=O)NCC(=O)N1CCC[C@H]1C(=O)N[C@@H](CO)C(=O)N[C@@H](CO)C(=O)NCC(=O)N[C@@H](C)C(=O)N1CCC[C@H]1C(=O)N1CCC[C@H]1C(=O)N1CCC[C@H]1C(=O)N[C@@H](CO)C(N)=O)C(C)C)[C@@H](C)CC` [Example 89] (H-Y[Aib]EGTLISDYSI[αMeL]LDKK([AEEA-AEEA-γGlu-C20 diacid])HQ[Aib]DFVE[4Pal]LLEAGPSSGAPPPS-NH2) was run?
A: The EC50 was 0.00687 nM.

Q: And the EC50 [2]?
A: Its EC50 is > 5000 nM.

Q: With `CC[C@H](C)[C@H](NC(=O)[C@H](Cc1ccccc1)NC(=O)[C@@H](NC(=O)CNC(=O)[C@H](CCC(=O)O)NC(=O)C(C)(C)NC(=O)[C@@H](N)Cc1ccc(O)cc1)[C@@H](C)O)C(=O)N[C@@H](CO)C(=O)N[C@@H](CC(=O)O)C(=O)N[C@@H](Cc1ccc(O)cc1)C(=O)N[C@@H](CO)C(=O)N[C@H](C(=O)N[C@@](C)(CC(C)C)C(=O)N[C@@H](CC(C)C)C(=O)N[C@@H](CC(=O)O)C(=O)N[C@@H](CCCCN)C(=O)N[C@@H](CCCCNC(=O)COCCOCCNC(=O)COCCOCCNC(=O)CC[C@H](NC(=O)CCCCCCCCCCCCCCCCCCC(=O)O)C(=O)O)C(=O)N[C@@H](Cc1c[nH]cn1)C(=O)N[C@@H](CCC(N)=O)C(=O)NC(C)(C)C(=O)N[C@@H](CC(=O)O)C(=O)N[C@@H](Cc1ccccc1)C(=O)N[C@H](C(=O)N[C@@H](CCC(=O)O)C(=O)N[C@@](C)(Cc1ccc(O)cc1)C(=O)N[C@@H](CC(C)C)C(=O)N[C@@H](CC(C)C)C(=O)N[C@@H](CCC(=O)O)C(=O)N[C@@H](C)C(=O)NCC(=O)N1CCC[C@H]1C(=O)N[C@@H](CO)C(=O)N[C@@H](CO)C(=O)NCC(=O)N[C@@H](C)C(=O)N1CCC[C@H]1C(=O)N1CCC[C@H]1C(=O)N1CCC[C@H]1C(=O)N[C@@H](CO)C(N)=O)C(C)C)[C@@H](C)CC` [Example 90] (H-Y[Aib]EGTFISDYSI[αMeL]LDKK([AEEA-AEEA-γGlu-C20 diacid])HQ[Aib]DFVE[αMeY]LLEAGPSSGAPPPS-NH2) as the compound, how does the EC50 [1] read?
A: The EC50 was 0.0272 nM.

Q: And the EC50 [2]?
A: Its EC50 is > 5000 nM.

Q: Which EC50 [1] does the source give for `CC[C@H](C)[C@H](NC(=O)[C@H](Cc1ccccc1)NC(=O)[C@@H](NC(=O)CNC(=O)[C@H](CCC(=O)O)NC(=O)C(C)(C)NC(=O)[C@@H](N)Cc1ccc(O)cc1)[C@@H](C)O)C(=O)N[C@@H](CO)C(=O)N[C@@H](CC(=O)O)C(=O)N[C@@H](Cc1ccc(O)cc1)C(=O)N[C@@H](CO)C(=O)N[C@H](C(=O)N[C@@](C)(CC(C)C)C(=O)N[C@@H](CC(C)C)C(=O)N[C@@H](CC(=O)O)C(=O)N[C@@H](CCCCN)C(=O)N[C@@H](CCCCNC(=O)COCCOCCNC(=O)COCCOCCNC(=O)CC[C@H](NC(=O)CCCCCCCCCCCCCCCCCCC(=O)O)C(=O)O)C(=O)N[C@@H](Cc1c[nH]cn1)C(=O)N[C@@H](CCC(N)=O)C(=O)NC(C)(C)C(=O)N[C@@H](CC(=O)O)C(=O)N[C@@H](Cc1ccccc1)C(=O)N[C@H](C(=O)N[C@@H](CCC(=O)O)C(=O)N[C@@](C)(Cc1ccc(O)cc1)C(=O)N[C@@H](CC(C)C)C(=O)N[C@@H](CC(C)C)C(=O)N[C@@H](CCC(=O)O)C(=O)NCC(=O)NCC(=O)N1CCC[C@H]1C(=O)N[C@@H](CO)C(=O)N[C@@H](CO)C(=O)NCC(=O)N[C@@H](C)C(=O)N1CCC[C@H]1C(=O)N1CCC[C@H]1C(=O)N1CCC[C@H]1C(=O)N[C@@H](CO)C(N)=O)C(C)C)[C@@H](C)CC` [Example 91] (H-Y[Aib]EGTFISDYSI[αMeL]LDKK([AEEA-AEEA-γGlu-C20 diacid])HQ[Aib]DFVE[αMeY]LLEGGPSSGAPPPS-NH2) here?
A: The EC50 was 0.0321 nM.

Q: What about the EC50 [2] of the same compound?
A: Its EC50 is 289 nM.
